The numbers were not newly measured in patent US20100119576A1, “USE OF ONE OR MORE OF THE ELEMENTS FROM THE GROUP YTTRIUM, NEODYMIUM AND ZIRCONIUM, AND PHARMACEUTICAL COMPOSITIONS WHICH CONTAIN THOSE ELEMENTS” (BIOTRONIK VI PATENT AG, priority 2002, published 2010), which cites them from elsewhere.

The structures appear in SMILES notation.

The data set concerns Klebsiella pneumoniae strain 204 and K9. The conditions noted are these: 142 mM Y(OH)3.

As to `[OH-].[OH-].[OH-].[Y+3]` [Y(OH)3], the “proliferation of K. pneumoniae” value is recorded as “increased proliferation”.
